# Measurements from the kinase profiling compilation of Christmann-Franck et al. (2016).
# How the values were obtained:
# PRKACA (human) = PRKACA (human) (UniProt P17612)
# SYK (human) = SYK (human) (UniProt P43405)
# CHEK1 (human) = CHEK1 (human) (UniProt O14757)
# CSNK2A1 (human) = CSNK2A1 (human) (UniProt P68400)
# NEK2 (human) = NEK2 (human) (UniProt P51955)
# ROCK2 (rat) = details: accession and sequence are those of the human protein
# MARK3 (human) [1] = molecular target: MARK3 (human) (UniProt P27448)
# Sequence of MARK3 (human) (P27448 whole entry, looked up): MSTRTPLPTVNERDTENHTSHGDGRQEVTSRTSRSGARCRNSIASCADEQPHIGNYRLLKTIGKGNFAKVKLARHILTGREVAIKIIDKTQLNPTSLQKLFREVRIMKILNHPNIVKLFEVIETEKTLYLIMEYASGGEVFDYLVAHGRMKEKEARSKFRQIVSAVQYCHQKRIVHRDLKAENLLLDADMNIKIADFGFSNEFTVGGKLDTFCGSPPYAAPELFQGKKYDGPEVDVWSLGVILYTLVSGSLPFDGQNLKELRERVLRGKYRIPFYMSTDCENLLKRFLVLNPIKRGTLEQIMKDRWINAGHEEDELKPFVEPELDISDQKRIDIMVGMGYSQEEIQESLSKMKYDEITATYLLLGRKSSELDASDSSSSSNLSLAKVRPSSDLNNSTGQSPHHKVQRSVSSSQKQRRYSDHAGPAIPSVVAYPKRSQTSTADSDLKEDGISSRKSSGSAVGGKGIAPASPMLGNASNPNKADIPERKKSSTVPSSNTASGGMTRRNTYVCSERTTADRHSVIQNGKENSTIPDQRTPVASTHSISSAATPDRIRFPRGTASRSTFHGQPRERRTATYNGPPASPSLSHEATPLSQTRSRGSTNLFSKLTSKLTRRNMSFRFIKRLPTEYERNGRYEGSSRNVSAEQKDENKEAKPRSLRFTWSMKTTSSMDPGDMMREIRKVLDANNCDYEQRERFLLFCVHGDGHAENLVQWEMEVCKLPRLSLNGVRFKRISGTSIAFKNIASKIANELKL
# MAPK13 (human) = MAPK13 (human) (UniProt O15264)
# Sequence of MAPK13 (human) (O15264 whole entry, looked up): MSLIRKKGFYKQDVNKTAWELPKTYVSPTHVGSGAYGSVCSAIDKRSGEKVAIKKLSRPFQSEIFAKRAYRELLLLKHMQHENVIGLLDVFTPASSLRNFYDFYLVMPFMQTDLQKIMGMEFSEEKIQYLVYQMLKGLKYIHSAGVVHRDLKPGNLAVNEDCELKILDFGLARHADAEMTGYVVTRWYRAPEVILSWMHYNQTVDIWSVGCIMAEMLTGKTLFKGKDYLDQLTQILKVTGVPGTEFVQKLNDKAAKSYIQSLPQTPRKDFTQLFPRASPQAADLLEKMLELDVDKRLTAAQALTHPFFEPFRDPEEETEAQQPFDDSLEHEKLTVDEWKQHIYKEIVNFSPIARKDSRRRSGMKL
# SRPK3 (human) = SRPK3 (human) (UniProt Q9UPE1); assay: KINOMEscan competition binding; details: compound 10.0 µM
# DDR1 (human) = DDR1 (human) (UniProt Q08345); assay: KINOMEscan competition binding; details: compound 10.0 µM
# KDR (human) = KDR (human) (UniProt P35968); assay: KINOMEscan competition binding; details: compound 10.0 µM
# EPHB2 (human) = EPHB2 (human) (UniProt P29323); assay: KINOMEscan competition binding; details: compound 10.0 µM
# PIK3C2B (human) = PIK3C2B (human) (UniProt O00750); assay: KINOMEscan competition binding; details: compound 10.0 µM
# [2] = tested on: PIK3CA (human), P42336 [E545A]; assay: KINOMEscan competition binding; details: compound 10.0 µM
# MAK (human) = MAK (human) (UniProt P20794); assay: KINOMEscan competition binding; details: compound 10.0 µM
# Sequence of MAK (human) (P20794 whole entry, looked up): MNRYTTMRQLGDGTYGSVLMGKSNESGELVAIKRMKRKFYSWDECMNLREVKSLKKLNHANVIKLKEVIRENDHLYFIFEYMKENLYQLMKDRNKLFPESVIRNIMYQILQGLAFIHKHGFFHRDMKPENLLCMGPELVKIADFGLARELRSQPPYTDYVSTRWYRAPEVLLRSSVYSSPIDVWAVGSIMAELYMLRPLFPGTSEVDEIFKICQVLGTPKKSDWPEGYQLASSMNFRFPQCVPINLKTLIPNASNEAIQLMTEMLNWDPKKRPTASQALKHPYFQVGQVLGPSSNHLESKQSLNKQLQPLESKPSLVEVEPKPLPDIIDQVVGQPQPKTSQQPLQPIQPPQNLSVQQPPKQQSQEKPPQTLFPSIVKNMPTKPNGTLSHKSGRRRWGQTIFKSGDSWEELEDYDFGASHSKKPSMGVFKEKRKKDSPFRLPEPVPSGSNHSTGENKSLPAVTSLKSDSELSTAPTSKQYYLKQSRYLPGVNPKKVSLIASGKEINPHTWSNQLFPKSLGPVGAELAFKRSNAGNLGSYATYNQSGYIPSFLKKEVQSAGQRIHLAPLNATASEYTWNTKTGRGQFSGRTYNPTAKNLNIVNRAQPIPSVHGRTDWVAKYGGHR
# MAPK7 (human) = MAPK7 (human) (UniProt Q13164); assay: KINOMEscan competition binding; details: compound 10.0 µM
# CDC42BPA (human) = CDC42BPA (human) (UniProt Q5VT25); assay: KINOMEscan competition binding; details: compound 10.0 µM
# MAPKAPK5 (human) = MAPKAPK5 (human) (UniProt Q8IW41); assay: KINOMEscan competition binding; details: compound 10.0 µM
# Sequence of MAPKAPK5 (human) (Q8IW41 whole entry, looked up): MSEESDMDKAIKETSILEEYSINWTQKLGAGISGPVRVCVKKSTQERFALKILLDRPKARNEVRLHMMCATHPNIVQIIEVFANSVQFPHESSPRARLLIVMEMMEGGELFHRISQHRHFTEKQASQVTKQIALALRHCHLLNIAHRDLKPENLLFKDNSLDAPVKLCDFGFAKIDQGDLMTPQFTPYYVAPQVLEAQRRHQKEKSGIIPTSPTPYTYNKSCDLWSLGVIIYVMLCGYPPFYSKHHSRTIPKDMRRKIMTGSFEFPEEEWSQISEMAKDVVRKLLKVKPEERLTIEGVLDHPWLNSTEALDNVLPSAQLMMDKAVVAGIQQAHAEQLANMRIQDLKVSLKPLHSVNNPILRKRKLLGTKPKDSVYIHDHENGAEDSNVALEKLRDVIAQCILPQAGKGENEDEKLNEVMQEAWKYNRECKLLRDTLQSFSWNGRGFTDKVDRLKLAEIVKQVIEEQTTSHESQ
# PAK4 (human) = PAK4 (human) (UniProt O96013); assay: KINOMEscan competition binding; details: compound 10.0 µM
# CAMK1G (human) = CAMK1G (human) (UniProt Q96NX5); assay: KINOMEscan competition binding; details: compound 10.0 µM
# PIK3CB (human) = PIK3CB (human) (UniProt P42338); assay: KINOMEscan competition binding; details: compound 10.0 µM
# TXK (human) = TXK (human) (UniProt P42681); assay: KINOMEscan competition binding; details: compound 10.0 µM
# Sequence of TXK (human) (P42681 whole entry, looked up): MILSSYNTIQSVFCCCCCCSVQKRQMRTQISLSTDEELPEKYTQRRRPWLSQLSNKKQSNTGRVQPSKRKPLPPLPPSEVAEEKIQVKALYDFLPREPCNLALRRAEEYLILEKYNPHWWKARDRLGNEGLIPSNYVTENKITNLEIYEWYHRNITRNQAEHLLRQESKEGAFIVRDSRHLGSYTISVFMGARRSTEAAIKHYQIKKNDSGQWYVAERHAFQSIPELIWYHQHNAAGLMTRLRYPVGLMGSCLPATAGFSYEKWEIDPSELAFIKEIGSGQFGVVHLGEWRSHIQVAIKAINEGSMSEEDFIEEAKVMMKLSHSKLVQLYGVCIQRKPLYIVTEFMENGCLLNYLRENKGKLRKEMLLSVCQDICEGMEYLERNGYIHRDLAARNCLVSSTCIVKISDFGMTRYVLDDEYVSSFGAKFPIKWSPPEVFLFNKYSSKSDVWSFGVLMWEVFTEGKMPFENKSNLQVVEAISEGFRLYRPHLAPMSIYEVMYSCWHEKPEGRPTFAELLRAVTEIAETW
# CSNK1A1 (human) = CSNK1A1 (human) (UniProt P48729); assay: KINOMEscan competition binding; details: compound 10.0 µM
# EPHB1 (human) = EPHB1 (human) (UniProt P54762); assay: KINOMEscan competition binding; details: compound 10.0 µM
# CSK (human) = CSK (human) (UniProt P41240); assay: KINOMEscan competition binding; details: compound 10.0 µM
# Sequence of CSK (human) (P41240 whole entry, looked up): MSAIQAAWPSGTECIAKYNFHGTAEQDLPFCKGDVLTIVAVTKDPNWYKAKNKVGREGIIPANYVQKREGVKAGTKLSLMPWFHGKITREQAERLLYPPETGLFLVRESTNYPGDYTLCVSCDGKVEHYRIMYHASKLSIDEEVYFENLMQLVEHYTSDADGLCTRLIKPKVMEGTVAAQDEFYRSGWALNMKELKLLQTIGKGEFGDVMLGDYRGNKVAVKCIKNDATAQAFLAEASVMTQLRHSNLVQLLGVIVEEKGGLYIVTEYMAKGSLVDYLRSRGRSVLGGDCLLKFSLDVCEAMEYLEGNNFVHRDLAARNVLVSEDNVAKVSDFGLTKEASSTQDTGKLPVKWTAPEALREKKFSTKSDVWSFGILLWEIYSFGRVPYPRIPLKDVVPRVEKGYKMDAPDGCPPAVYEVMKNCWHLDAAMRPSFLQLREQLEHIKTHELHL
# FER (human) = FER (human) (UniProt P16591); assay: KINOMEscan competition binding; details: compound 10.0 µM
# MAP3K6 (human) = MAP3K6 (human) (UniProt O95382); assay: KINOMEscan competition binding; details: compound 10.0 µM
# MAP2K7 (human) = MAP2K7 (human) (UniProt O14733); assay: KINOMEscan competition binding; details: compound 10.0 µM
# NEK6 (human) = NEK6 (human) (UniProt Q9HC98); assay: KINOMEscan competition binding; details: compound 10.0 µM
# Sequence of NEK6 (human) (Q9HC98 whole entry, looked up): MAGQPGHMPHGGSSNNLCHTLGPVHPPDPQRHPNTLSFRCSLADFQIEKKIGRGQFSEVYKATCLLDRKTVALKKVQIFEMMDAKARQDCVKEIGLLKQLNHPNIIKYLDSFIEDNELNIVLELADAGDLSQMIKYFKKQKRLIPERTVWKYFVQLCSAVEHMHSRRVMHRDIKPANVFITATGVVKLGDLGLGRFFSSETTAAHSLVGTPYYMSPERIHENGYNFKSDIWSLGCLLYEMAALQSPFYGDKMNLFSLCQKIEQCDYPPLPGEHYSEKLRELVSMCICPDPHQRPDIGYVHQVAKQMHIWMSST
# TGFBR2 (human) = TGFBR2 (human) (UniProt P37173); assay: KINOMEscan competition binding; details: compound 10.0 µM
# SGK3 (human) = SGK3 (human) (UniProt Q96BR1); assay: KINOMEscan competition binding; details: compound 10.0 µM
# STK32C (human) = STK32C (human) (UniProt Q86UX6); assay: KINOMEscan competition binding; details: compound 10.0 µM
# TESK1 (human) = TESK1 (human) (UniProt Q15569); assay: KINOMEscan competition binding; details: compound 10.0 µM
# [3] = tested on: PIK3CA (human), P42336 [I800L]; assay: KINOMEscan competition binding; details: compound 10.0 µM
# ALK (human) = ALK (human) (UniProt Q9UM73); assay: KINOMEscan competition binding; details: compound 10.0 µM
# MARK3 (human) [4] = molecular target: MARK3 (human) (UniProt P27448); assay: KINOMEscan competition binding; details: compound 10.0 µM
# CaMK1 (human) = CaMK1 (human) (UniProt Q14012); assay: KINOMEscan competition binding; details: compound 10.0 µM
# RAF1 (human) = RAF1 (human) (UniProt P04049); assay: KINOMEscan competition binding; details: compound 10.0 µM
# [5] = tested on: BRAF (human), P15056 [V600E]; assay: KINOMEscan competition binding; details: compound 10.0 µM
# Sequence of CHEK1 (human) (O14757 whole entry, looked up): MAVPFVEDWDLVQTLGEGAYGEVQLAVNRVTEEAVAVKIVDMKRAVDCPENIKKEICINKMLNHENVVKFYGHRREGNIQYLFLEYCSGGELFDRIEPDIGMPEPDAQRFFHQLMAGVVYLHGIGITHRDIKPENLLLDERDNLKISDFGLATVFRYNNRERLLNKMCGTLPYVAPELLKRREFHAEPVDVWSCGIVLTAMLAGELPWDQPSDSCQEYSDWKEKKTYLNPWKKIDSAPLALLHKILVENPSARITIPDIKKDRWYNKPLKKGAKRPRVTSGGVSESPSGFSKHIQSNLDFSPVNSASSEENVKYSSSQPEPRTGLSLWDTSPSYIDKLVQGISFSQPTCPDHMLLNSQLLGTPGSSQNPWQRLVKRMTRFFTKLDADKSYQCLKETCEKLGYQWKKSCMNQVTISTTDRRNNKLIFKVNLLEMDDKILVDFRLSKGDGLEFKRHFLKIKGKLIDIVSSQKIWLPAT
# Sequence of NEK2 (human) (P51955 whole entry, looked up): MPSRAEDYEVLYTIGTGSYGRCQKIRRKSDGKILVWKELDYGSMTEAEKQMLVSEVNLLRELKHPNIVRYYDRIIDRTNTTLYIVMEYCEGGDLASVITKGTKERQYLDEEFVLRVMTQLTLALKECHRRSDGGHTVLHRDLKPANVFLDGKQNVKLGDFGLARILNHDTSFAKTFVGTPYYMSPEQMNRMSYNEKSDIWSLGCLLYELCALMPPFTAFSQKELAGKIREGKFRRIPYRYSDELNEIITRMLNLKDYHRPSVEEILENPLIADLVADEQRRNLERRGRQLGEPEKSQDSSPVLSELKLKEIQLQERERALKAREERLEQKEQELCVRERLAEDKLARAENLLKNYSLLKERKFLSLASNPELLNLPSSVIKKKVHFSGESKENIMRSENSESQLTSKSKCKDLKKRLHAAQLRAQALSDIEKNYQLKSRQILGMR
# Sequence of CSNK2A1 (human) (P68400 whole entry, looked up): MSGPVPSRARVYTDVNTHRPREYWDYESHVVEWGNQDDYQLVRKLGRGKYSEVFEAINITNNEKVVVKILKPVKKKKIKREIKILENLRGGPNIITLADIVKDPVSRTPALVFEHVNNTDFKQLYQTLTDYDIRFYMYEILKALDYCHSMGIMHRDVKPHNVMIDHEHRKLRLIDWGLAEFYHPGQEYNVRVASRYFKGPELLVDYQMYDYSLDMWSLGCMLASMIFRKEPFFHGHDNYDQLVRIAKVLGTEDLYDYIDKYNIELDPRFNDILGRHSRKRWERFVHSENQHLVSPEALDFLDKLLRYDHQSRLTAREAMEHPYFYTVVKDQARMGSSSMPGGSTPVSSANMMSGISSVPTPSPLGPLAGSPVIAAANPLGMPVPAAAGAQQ
smiles,measurement,setting,value
COc1ccc(-c2ccc3c(N4CCOCC4)nc(N4C[C@@H](C)O[C@@H](C)C4)nc3n2)cc1CO,per cent of control,PRKACA (human); compound 1.0 µM,115%
same,per cent of control,PRKACA (human); compound 10.0 µM,85%
same,per cent of control,SYK (human); compound 1.0 µM,88%
same,per cent of control,SYK (human); compound 10.0 µM,83%
same,per cent of control,CHEK1 (human); compound 1.0 µM,87%
same,per cent of control,CHEK1 (human); compound 10.0 µM,86%
same,per cent of control,CSNK2A1 (human); compound 1.0 µM,104%
same,per cent of control,CSNK2A1 (human); compound 10.0 µM,85%
same,per cent of control,NEK2 (human); compound 1.0 µM,92%
same,per cent of control,NEK2 (human); compound 10.0 µM,86%
same,per cent of control,ROCK2 (rat); compound 1.0 µM,75%
same,per cent of control,ROCK2 (rat); compound 10.0 µM,86%
same,per cent of control,MARK3 (human) [1]; compound 1.0 µM,93%
same,per cent of control,MARK3 (human) [1]; compound 10.0 µM,93%
same,per cent of control,MAPK13 (human); compound 1.0 µM,72%
same,per cent of control,MAPK13 (human); compound 10.0 µM,87%
same,"kinase still bound, per cent of control",SRPK3 (human),75%
same,"kinase still bound, per cent of control",DDR1 (human),85%
same,"kinase still bound, per cent of control",KDR (human),98%
same,"kinase still bound, per cent of control",EPHB2 (human),100%
same,"kinase still bound, per cent of control",PIK3C2B (human),85%
same,"kinase still bound, per cent of control",[2],2.4%
same,"kinase still bound, per cent of control",MAK (human),100%
same,"kinase still bound, per cent of control",MAPK7 (human),100%
same,"kinase still bound, per cent of control",CDC42BPA (human),92%
same,"kinase still bound, per cent of control",MAPKAPK5 (human),77%
same,"kinase still bound, per cent of control",PAK4 (human),86%
same,"kinase still bound, per cent of control",CAMK1G (human),94%
same,"kinase still bound, per cent of control",PIK3CB (human),30%
same,"kinase still bound, per cent of control",TXK (human),100%
same,"kinase still bound, per cent of control",CSNK1A1 (human),100%
same,"kinase still bound, per cent of control",EPHB1 (human),100%
same,"kinase still bound, per cent of control",CSK (human),77%
same,"kinase still bound, per cent of control",FER (human),100%
same,"kinase still bound, per cent of control",MAP3K6 (human),91%
same,"kinase still bound, per cent of control",MAP2K7 (human),100%
same,"kinase still bound, per cent of control",NEK6 (human),96%
same,"kinase still bound, per cent of control",TGFBR2 (human),92%
same,"kinase still bound, per cent of control",SGK3 (human),100%
same,"kinase still bound, per cent of control",STK32C (human),87%
same,"kinase still bound, per cent of control",TESK1 (human),98%
same,"kinase still bound, per cent of control",[3],0%
same,"kinase still bound, per cent of control",ALK (human),100%
same,"kinase still bound, per cent of control",MARK3 (human) [4],96%
same,"kinase still bound, per cent of control",CaMK1 (human),90%
same,"kinase still bound, per cent of control",RAF1 (human),100%
same,"kinase still bound, per cent of control",[5],92%
COC(=O)Nc1ccc(-c2nc(N3CCOCC3)c3cnn(C4CCN(C(=O)OC)CC4)c3n2)cc1,per cent of control,PRKACA (human); compound 1.0 µM,103%
same,per cent of control,PRKACA (human); compound 10.0 µM,100%
same,per cent of control,SYK (human); compound 1.0 µM,124%
same,per cent of control,SYK (human); compound 10.0 µM,127%
same,per cent of control,CHEK1 (human); compound 1.0 µM,96%
same,per cent of control,CHEK1 (human); compound 10.0 µM,92%
same,per cent of control,CSNK2A1 (human); compound 1.0 µM,99%
same,per cent of control,CSNK2A1 (human); compound 10.0 µM,92%
same,per cent of control,NEK2 (human); compound 1.0 µM,93%
same,per cent of control,NEK2 (human); compound 10.0 µM,101%
same,per cent of control,ROCK2 (rat); compound 1.0 µM,92%
same,per cent of control,ROCK2 (rat); compound 10.0 µM,97%
same,per cent of control,MARK3 (human) [1]; compound 1.0 µM,92%
same,per cent of control,MARK3 (human) [1]; compound 10.0 µM,107%
same,per cent of control,MAPK13 (human); compound 1.0 µM,14%
same,per cent of control,MAPK13 (human); compound 10.0 µM,10%
same,"kinase still bound, per cent of control",SRPK3 (human),100%
same,"kinase still bound, per cent of control",DDR1 (human),100%
same,"kinase still bound, per cent of control",KDR (human),100%
same,"kinase still bound, per cent of control",EPHB2 (human),100%
same,"kinase still bound, per cent of control",PIK3C2B (human),100%
same,"kinase still bound, per cent of control",[2],5.5%
same,"kinase still bound, per cent of control",MAK (human),100%
same,"kinase still bound, per cent of control",MAPK7 (human),100%
same,"kinase still bound, per cent of control",CDC42BPA (human),100%
same,"kinase still bound, per cent of control",MAPKAPK5 (human),100%
same,"kinase still bound, per cent of control",PAK4 (human),100%
same,"kinase still bound, per cent of control",CAMK1G (human),92%
same,"kinase still bound, per cent of control",PIK3CB (human),42%
same,"kinase still bound, per cent of control",TXK (human),92%
same,"kinase still bound, per cent of control",CSNK1A1 (human),100%
same,"kinase still bound, per cent of control",EPHB1 (human),100%
same,"kinase still bound, per cent of control",CSK (human),98%
same,"kinase still bound, per cent of control",FER (human),100%
same,"kinase still bound, per cent of control",MAP3K6 (human),95%
same,"kinase still bound, per cent of control",MAP2K7 (human),100%
same,"kinase still bound, per cent of control",NEK6 (human),100%
same,"kinase still bound, per cent of control",TGFBR2 (human),78%
same,"kinase still bound, per cent of control",SGK3 (human),99%
same,"kinase still bound, per cent of control",STK32C (human),89%
same,"kinase still bound, per cent of control",TESK1 (human),91%
same,"kinase still bound, per cent of control",[3],0.4%
same,"kinase still bound, per cent of control",ALK (human),100%
same,"kinase still bound, per cent of control",MARK3 (human) [4],100%
same,"kinase still bound, per cent of control",CaMK1 (human),96%
same,"kinase still bound, per cent of control",RAF1 (human),91%
same,"kinase still bound, per cent of control",[5],81%
